This is an account of results in ChEMBL document CHEMBL1201862, “PubChem BioAssay data set” (2004).

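Step 1: Grow cells in 96-well plates. Step 2: Expose to compound for 48 hours at 5 concentrations. Step 3: Interpolate endpoints linearly; if unreached, use highest concentration. Here, GI50 denotes the concentration required for 50% inhibition of growth.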 The source made the active and inactive calls. Cut-off read from the data, not from the text of the source: active = GI50 up to about 1.1 µM and inactive = higher.

Some test systems named below: NCI-H522; Hs-578T; A549; HOP-92; MDA-MB-435; TK-10; MDA-MB-231; U-251; T47D; OVCAR-5; K562; UACC-62; COLO 205; DU-145; HOP-62; MCF7; SNB-19; HT-29; NCI-H226; SK-OV-3.
Holding throughout (test): NCI-60 cell line screen, 48 h

On to `Nc1ccc(S(=O)(=O)Nc2nc3ccccc3nc2N2CCCCC2)cc1`, for which the GI50 in the assay with NCI-H522 was 31.1 µM (inactive); with Hs-578T it was > 100 µM (inactive); with A549, 48.1 µM (inactive); in the assay with HOP-92 it was 53 µM (inactive); in the assay on MDA-MB-435, > 100 µM (inactive); in the assay with TK-10 it was 37.6 µM (inactive). Further, the GI50 in the assay on MDA-MB-231 was > 100 µM (inactive); in the assay with U-251, 68.2 µM (inactive); in the assay with T47D, 41.6 µM (inactive); in the assay on OVCAR-5 it was > 100 µM (inactive); in the assay with K562, > 100 µM (inactive); with UACC-62 it was > 100 µM (inactive). The GI50 was 64.9 µM (inactive) with COLO 205; > 100 µM (inactive) with DU-145; > 100 µM (inactive) with HOP-62; 84.3 µM (inactive) in the assay on MCF7; > 100 µM (inactive) with SNB-19; > 100 µM (inactive) in the assay on HT-29. Moreover, the GI50 in the assay on NCI-H226 and in the assay with SK-OV-3 was > 100 µM (inactive) each time.
As to `Cc1c(Cl)ccc2c1NC(=O)C2(O)CC(=O)c1ccc(Cl)cc1Cl` (stereo not given), the GI50 was > 50 µM (inactive) in the assay with NCI-H522; 12.9 µM (inactive) with Hs-578T; > 50 µM (inactive) in the assay with A549; 23.6 µM (inactive) in the assay with HOP-92; > 50 µM (inactive) in the assay with MDA-MB-435; 30.5 µM (inactive) in the assay on TK-10. The GI50 in the assay with MDA-MB-231 is 30.5 µM (inactive); with U-251 it was 22.6 µM (inactive); in the assay on T47D, > 50 µM (inactive); in the assay with OVCAR-5, > 50 µM (inactive); with K562, 19.1 µM (inactive); with UACC-62 it was > 50 µM (inactive). For the same molecule, the GI50 with COLO 205 was > 50 µM (inactive); with DU-145, > 50 µM (inactive); with HOP-62 it was 19.2 µM (inactive); in the assay with MCF7, > 50 µM (inactive); in the assay on SNB-19, > 50 µM (inactive); in the assay on HT-29 it was > 50 µM (inactive). Besides, the GI50 with NCI-H226 was > 29.4 µM (inactive); with SK-OV-3, > 45.9 µM (inactive).
As for `O=c1c(C(c2cccnc2)c2c(O)oc3cc(O)ccc3c2=O)c(O)oc2cc(O)ccc12`, the GI50 in the assay on NCI-H522, in the assay with Hs-578T, in the assay with A549, with HOP-92, with MDA-MB-435 and with TK-10 was > 100 µM (inactive) each time. The GI50 in the assay with MDA-MB-231, in the assay on U-251, in the assay on T47D, with OVCAR-5, in the assay with K562 and in the assay with UACC-62 was > 100 µM (inactive) each time. Besides, the GI50 in the assay on COLO 205, in the assay on DU-145, with HOP-62, with MCF7, in the assay on SNB-19 and in the assay with HT-29 was > 100 µM (inactive) each time. The GI50 in the assay on NCI-H226 and in the assay on SK-OV-3 was > 100 µM (inactive) each time.
`CCOc1cccc(/C=N\c2ccccc2SSc2ccccc2/N=C\c2cccc(OCC)c2O)c1O`: the GI50 in the assay with NCI-H522 was 2.95 µM (inactive); in the assay with Hs-578T, 16.9 µM (inactive); in the assay with A549, 10.7 µM (inactive); with HOP-92, 11.5 µM (inactive); in the assay on MDA-MB-435 it was 11.5 µM (inactive); with TK-10, 29 µM (inactive). Moreover, the GI50 with MDA-MB-231 is 8.95 µM (inactive); in the assay with U-251 it was 3.64 µM (inactive); in the assay on T47D, 1.26 µM (inactive); in the assay on OVCAR-5 it was 4.56 µM (inactive); in the assay with K562, 6.55 µM (inactive); in the assay on UACC-62, 4.28 µM (inactive). Further, the GI50 is 3.02 µM (inactive) with COLO 205; 16.6 µM (inactive) in the assay with DU-145; 6.92 µM (inactive) in the assay with HOP-62; 0.326 µM (active) with MCF7; 11.2 µM (inactive) with SNB-19; 14.6 µM (inactive) in the assay on HT-29. Besides, the GI50 in the assay on NCI-H226 was 6.41 µM (inactive); with SK-OV-3, 23.2 µM (inactive).
For the molecule `CC1(c2cccc(C3CCC4(C=CC3=O)OCCO4)c2)OCCO1` (stereo not given), the GI50 in the assay on NCI-H522 was 1.43 µM (inactive); in the assay with Hs-578T, 15.3 µM (inactive); in the assay with A549 it was 18.5 µM (inactive); in the assay on HOP-92, 5.81 µM (inactive); in the assay with MDA-MB-435, 13.4 µM (inactive); in the assay with TK-10 it was 8.2 µM (inactive). Moreover, the GI50 is 13.2 µM (inactive) with MDA-MB-231; 18.1 µM (inactive) in the assay on U-251; 8.49 µM (inactive) in the assay with T47D; 18.2 µM (inactive) with OVCAR-5; 3.08 µM (inactive) in the assay on K562; 6.52 µM (inactive) in the assay on UACC-62. Also, the GI50 with COLO 205 is 6.14 µM (inactive); with DU-145 it was 17.9 µM (inactive); in the assay on HOP-62, 31 µM (inactive); in the assay with MCF7, 11 µM (inactive); with SNB-19, 15.9 µM (inactive); in the assay on HT-29, 11.8 µM (inactive). Also, the GI50 in the assay with NCI-H226 is 25.9 µM (inactive); in the assay with SK-OV-3 it was 30.8 µM (inactive).
As for `O=c1ccn(C/C=C/c2ccccc2)c(=S)n1C/C=C/c1ccccc1`, the GI50 in the assay with NCI-H522 was 67.8 µM (inactive); with Hs-578T it was > 100 µM (inactive); in the assay with A549, 17.7 µM (inactive); in the assay on HOP-92 it was > 100 µM (inactive); with MDA-MB-435, 60 µM (inactive); with TK-10 it was > 100 µM (inactive). The GI50 in the assay with MDA-MB-231 was > 100 µM (inactive); in the assay with U-251, 77.1 µM (inactive); in the assay on T47D, 20.9 µM (inactive); in the assay with OVCAR-5 it was > 100 µM (inactive); in the assay with K562, 15.8 µM (inactive); in the assay on UACC-62, > 100 µM (inactive). The GI50 with COLO 205 was 54 µM (inactive); with DU-145 it was > 100 µM (inactive); in the assay on HOP-62 it was > 100 µM (inactive); in the assay with MCF7, 18.3 µM (inactive); in the assay on SNB-19, > 100 µM (inactive); in the assay on HT-29, > 100 µM (inactive). Moreover, the GI50 in the assay with NCI-H226 and in the assay with SK-OV-3 was > 100 µM (inactive) throughout.
As for `[N-]=[N+]=NI1OC(=O)c2ccccc21`, the GI50 is 17.3 µM (inactive) with NCI-H522; > 100 µM (inactive) in the assay on Hs-578T; > 100 µM (inactive) in the assay on A549; 44.9 µM (inactive) with HOP-92; 67.3 µM (inactive) in the assay with MDA-MB-435; > 100 µM (inactive) in the assay with TK-10. The GI50 was > 100 µM (inactive) with MDA-MB-231; 92.9 µM (inactive) with U-251; > 100 µM (inactive) in the assay on T47D; 66.5 µM (inactive) with OVCAR-5; 36.6 µM (inactive) in the assay on K562; > 100 µM (inactive) with UACC-62. Also, the GI50 was 48.5 µM (inactive) in the assay on COLO 205; > 100 µM (inactive) with DU-145; > 100 µM (inactive) in the assay on HOP-62; 93.5 µM (inactive) with MCF7; > 100 µM (inactive) in the assay with SNB-19; > 100 µM (inactive) in the assay on HT-29. The GI50 in the assay on NCI-H226 and in the assay on SK-OV-3 was > 100 µM (inactive) each time.
On to `Cc1cc(C)c2c(=N)c3ccccc3n(CCCCCCn3c4ccccc4c(=N)c4c(C)cc(C)nc43)c2n1`, for which the GI50 in the assay with NCI-H522 is 1.39 µM (inactive); in the assay on Hs-578T, 1.66 µM (inactive); with A549 it was 1.63 µM (inactive); with HOP-92 it was 1.58 µM (inactive); with MDA-MB-435, 1.77 µM (inactive); in the assay on TK-10, 1.64 µM (inactive). Also, the GI50 is 0.447 µM (active) with MDA-MB-231; 0.252 µM (active) with U-251; 1.92 µM (inactive) in the assay with T47D; 1.84 µM (inactive) in the assay with OVCAR-5; 0.3 µM (active) with K562; 1.77 µM (inactive) with UACC-62. The GI50 with COLO 205 was 1.57 µM (inactive); with DU-145, 1.74 µM (inactive); with HOP-62 it was 0.598 µM (active); with MCF7, 0.435 µM (active); in the assay on SNB-19, 0.767 µM (active); with HT-29 it was 0.462 µM (active). In addition, the GI50 with NCI-H226 is 1.66 µM (inactive); with SK-OV-3, 1.62 µM (inactive).
Consider `Cc1nn(C(=O)c2ccc(Cl)cc2)c2c1C(c1ccc(O)cc1)SC(=N)N2` (stereo not given), for which the GI50 in the assay on NCI-H522, with Hs-578T, in the assay with A549, in the assay on HOP-92, in the assay on MDA-MB-435 and in the assay on TK-10 was > 10 µM (inactive) each time. For the same molecule, the GI50 in the assay with MDA-MB-231, in the assay on U-251, in the assay on T47D, in the assay with OVCAR-5, with K562 and with UACC-62 was > 10 µM (inactive) each time. Also, the GI50 with COLO 205, in the assay with DU-145, in the assay with HOP-62, in the assay on MCF7, in the assay with SNB-19 and in the assay on HT-29 was > 10 µM (inactive) in each case. For the same molecule, the GI50 with NCI-H226 and with SK-OV-3 was > 10 µM (inactive) throughout.
As to `Cc1cc(/N=C2\C=C(Nc3cc(C)on3)C(=O)c3ccccc32)no1`, the GI50 was > 100 µM (inactive) with NCI-H522; 13.2 µM (inactive) in the assay on Hs-578T; 31.2 µM (inactive) with A549; 19 µM (inactive) in the assay with HOP-92; 7.24 µM (inactive) in the assay with MDA-MB-435; 55 µM (inactive) in the assay on TK-10. Besides, the GI50 was 12.9 µM (inactive) in the assay on MDA-MB-231; 30.1 µM (inactive) in the assay on U-251; 47.3 µM (inactive) in the assay on T47D; > 76 µM (inactive) in the assay with OVCAR-5; > 100 µM (inactive) in the assay on K562; 12 µM (inactive) in the assay with UACC-62. Moreover, the GI50 in the assay with COLO 205 is 31.3 µM (inactive); in the assay on DU-145, 52.5 µM (inactive); in the assay on HOP-62, > 61.1 µM (inactive); in the assay on MCF7 it was 7.46 µM (inactive); with SNB-19 it was 61 µM (inactive); in the assay on HT-29 it was 49.7 µM (inactive). Also, the GI50 in the assay on NCI-H226 was > 92 µM (inactive); in the assay with SK-OV-3 it was 77.8 µM (inactive).
